Source: patent US8192962B2, “Processes for detecting toxic substances” (Daikin Industries, Ltd., priority 2001, dated 2012)

Test system: Transport facilitation protein genes
Experiment: DNA chip mRNA expression in yeast, transport facilitation protein genes (Table 5)
Assay type: cell-based, Saccharomyces cerevisiae S288C
Summary of the method: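 Untreated cultures served as reference for log-phase S288C yeast given a growth-inhibiting, non-lethal toxicant dose for 2 h at 25° C. in YPD. Gene expression was measured on a whole-genome DNA chip from Cy3/Cy5-labeled cDNA.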

Measured: The level of expressed mRNA in the presence of chemical substance/The level of expressed mRNA in the absence of chemical substance

CCCCCCCCCCCCOS(=O)(=O)[O-].[Na+] [(18), sodium lauryl sulfate]
2.1: yeast gene YOR035C
0.9: yeast gene YBR293W | yeast gene YBR294W | yeast gene YCR037C | yeast gene YDL210W | yeast gene YFL041W | yeast gene YGR260W | yeast gene YIL006W | yeast gene YKL146W | yeast gene YLR081W | yeast gene YOL156W | yeast gene YOR348C | yeast gene YPR192W | yeast gene YPR194C
1.4: yeast gene YBR207W | yeast gene YCR024C-A | yeast gene YEL027W | yeast gene YFL054C | yeast gene YGL167C | yeast gene YHR094C | yeast gene YIL088C | yeast gene YJR121W
1.5: yeast gene YCL038C | yeast gene YDR038C | yeast gene YLR295C
1.6: yeast gene YCR098C | yeast gene YDR039C | yeast gene YDR298C | yeast gene YMR011W
3.1: yeast gene YBR052C | yeast gene YGR281W | yeast gene YOR153W | yeast gene YOR273C
0.7: yeast gene YDR270W | yeast gene YEL063C | yeast gene YGR055W | yeast gene YGR065C | yeast gene YGR138C | yeast gene YIL022W | yeast gene YLR378C | yeast gene YMR203W
3.6: yeast gene YPL147W
1.7: yeast gene YKL016C | yeast gene YNL055C | yeast gene YOR332W
1.2: yeast gene YBL099W | yeast gene YBR295W | yeast gene YHL035C | yeast gene YHL047C | yeast gene YHR175W | yeast gene YIL056W | yeast gene YJL219W | yeast gene YLL028W
4.1: yeast gene YGL006W
1.1: yeast gene YBL030C | yeast gene YDL198C | yeast gene YDL245C | yeast gene YDR387C | yeast gene YHR026W | yeast gene YKR039W | yeast gene YMR162C | yeast gene YOR130C
1.8: yeast gene YDR345C | yeast gene YDR497C
0.6: yeast gene YCL025C | yeast gene YEL065W
1.3: yeast gene YBR068C | yeast gene YBR132C | yeast gene YGL104C | yeast gene YGR224W | yeast gene YHR092C | yeast gene YJR106W | yeast gene YPL134C | yeast gene YPL271W
1.9: yeast gene YDR086C | yeast gene YGR197C
2.2: yeast gene YDR342C
0.8: yeast gene YBR298C | yeast gene YGR082W | yeast gene YGR191W | yeast gene YJR077C | yeast gene YOL163W
2.3: yeast gene YDR343C | yeast gene YER053C
1.0: yeast gene YBR127C | yeast gene YDL128W | yeast gene YFL011W | yeast gene YFL050C | yeast gene YGL008C | yeast gene YGR096W | yeast gene YHL040C | yeast gene YJL034W | yeast gene YKR067W | yeast gene YLR348C | yeast gene YNR072W | yeast gene YOL119C | yeast gene YOR316C
2.4: yeast gene YNL259C
0.5: yeast gene YGL255W | yeast gene YJL212C | yeast gene YPL036W
